In patent EP0442744A2, “Treatment of viral disease by glycosides” (TSUMURA & CO., priority 1990, dated 1991):

Key:
[1] = Cytotoxicity in FL cells (experiment repeated without the virus); conditions: human
Protocol: (§1) When the experiment was started, the medium was removed from the dishes and a suspension (1 ml) containing Herpes simplex virus at the predetermined concentration in the medium was added to the dishes. The dishes were incubated in an incubator under the humidified air containing 5% CO₂ at 36°C for one hour to allow the adsorption of the viruses. Then the medium was removed and a fresh medium containing the test compounds was added. After 24 hours, the number of polykaryotic giant cells in each dish was counted and the minimum concentration showing no polykaryotic giant cells was taken as the antivirally active concentration to the herpes virus. The experiment was repeated without the virus and the minimum concentration at which cells died was taken as the cytotoxic concentration.

Herpes simplex virus = assay: Herpes virus inhibition experiment in FL cells (polykaryotic giant cell count); type: cell-based; conditions: for minimal effective concentration: minimum concentration showing no polykaryotic giant cells after 24 hours, FL cells infected with Herpes simplex virus, read-out: Antivial activity
Protocol: as §1

in vitro = conditions: human, fl cells
Protocol: as §1

Compound	MCC [1] [µg/mL]	minimal effective concentration (Herpes simplex virus) [µg/mL]	Antivial activity (Herpes simplex virus) [ng/mL]	MCC at 24 h (in vitro) [µg/mL]
C[C@H]1O[C@@H](O[C@H]2CC[C@]3(C=O)[C@H]4CC[C@]5(C)[C@@H](C6=CC(=O)OC6)CC[C@]5(O)[C@@H]4CC[C@]3(O)C2)C[C@H](O)[C@@H]1O [Compound 5]	0.46	0.03	–	–
C[C@]12CC[C@H](O)C[C@H]1CC[C@@H]1[C@@H]2CC[C@]2(C)[C@@H](c3ccc(=O)oc3)CC[C@]12O [Compound 7, 3,14-dihydroxybufa-20,22-dienolide]	–	–	8	0.5
C[C@@H]1O[C@@H](O[C@H]2CC[C@]3(C=O)[C@H]4CC[C@]5(C)[C@@H](C6=CC(=O)OC6)CC[C@]5(O)[C@@H]4CC[C@]3(O)C2)[C@H](O)[C@H](O)[C@H]1O [Compound 6, 3β-[(6-deoxy-α-L-mannopyranosyl)oxy]-5,14-dihydroxy-19-oxo-5β-card-20(22) enolide]	0.38	0.025	–	–
C[C@H]1O[C@@H](O[C@H]2[C@@H](O)C[C@H](O[C@H]3[C@@H](O)C[C@H](O[C@H]4CC[C@@]5(C)[C@H](CC[C@@H]6[C@@H]5CC[C@]5(C)[C@@H](C7=CC(=O)OC7)CC[C@]65O)C4)O[C@@H]3C)O[C@@H]2C)C[C@H](O)[C@@H]1O [Compound 1, 3-[(O-2,6-dideoxy-β-D-ribo-hexopranoxyl-(1→4)-O-2,6-dideoxy-β-D-ribo-hexopyranosyl-(1→4)-2,6-dideoxy-β-D-ribo-hexopyranosyl)-oxy]-14-hydroxycard-(20)22-enolide]	0.48	0.025	–	–
C[C@H]1O[C@@H](O[C@H]2[C@@H](O)C[C@H](O[C@H]3[C@@H](O)C[C@H](O[C@H]4CC[C@@]5(C)[C@H](CC[C@@H]6[C@@H]5C[C@@H](O)[C@]5(C)[C@@H](C7=CC(=O)OC7)CC[C@]65O)C4)O[C@@H]3C)O[C@@H]2C)C[C@H](O)[C@@H]1O [Compound 2, 3-[(O-2,6-dideoxy-β-D-ribo-hexopranoxyl-(1→4)-O-2,6-dideoxy-β-D-ribo-hexopyranosyl-(1→4)-2,6-dideoxy-β-D-ribo-hexopyranosyl)-oxy]-12,14-dihydroxycard-(20)22-enolide]	0.48	0.05	–	–
C[C@@H]1O[C@@H](O[C@H]2C[C@@H](O)[C@]3(CO)[C@H]4[C@H](O)C[C@]5(C)[C@@H](C6=CC(=O)OC6)CC[C@]5(O)[C@@H]4CC[C@]3(O)C2)[C@H](O)[C@H](O)[C@H]1O [Compound 4, 3-[(6-deoxy-α-L-mannopyranosyl)oxy]-1,5,11α, 14,19-pentahydroxycard-20(22) enolide]	0.46	0.04	–	–
